TGI and GI50 data for 29 compounds are collected here from PubChem BioAssay (NCI).

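Tested at 5 concentrations; 48 h exposure; 96-well plates; endpoints linearly interpolated, else capped at highest concentration. GI50 = concentration required for 50% inhibition of growth. TGI marks complete inhibition of growth.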

Assay in all cases: inhibition of tumour cell growth, NCI panel, 48 h
Assay [1] relates to KM12 colon.
Assay [2] has as its system M14 melanoma.
The subject of assay [3] is NCI-H460 lung.
Assay [4] relates to OVCAR-8 ovarian.
The test system of assay [5] is SF-268 CNS.
The test system of assay [6] is SF-539 CNS.
Assay [7] has as its system UO-31 renal.
The test system of assay [8] is HCC-2998 colon.
Assay [9] has as its system HL-60(TB) leukemia.

On to `CC(C)(C)C(=CS(=O)/N=C/c1ccccc1)C(C)(C)C` (centres undefined), for which the TGI in assay [1] is above 100 µM; in assay [2], above 100 µM; in assay [3] it was 73.2 µM; in assay [4] it was above 100 µM; in assay [5] it was above 100 µM; in assay [6], above 100 µM. The compound also registered a TGI in assay [7] of 95.7 µM.
Regarding `CCCC(=O)N[C@H]1C2C3CC4C5CC(C42)C1(C)C53` (some centres undefined), the TGI in assay [8], in assay [9], in [1], in assay [2], in assay [3] and in assay [5] was above 100 µM each time. For the same compound, the TGI in assay [6] and in assay [7] was above 100 µM in each case.
For `CC(C)CCCC(C)[C@H]1CCC2[C@@H]3CCC4Nc5c(cnn5-c5ccccc5)C[C@]4(C)C3CC[C@@]21C` (some centres undefined), the TGI in [8], in assay [9], in assay [1], in [2], in [3] and in [4] was above 100 µM each time. The TGI is above 100 µM in [5], above 100 µM in [6] and 50.4 µM in assay [7].
As for `C[Si](C)(C)/C=C\CCO`, the TGI in [8], in assay [9], in assay [1], in assay [2], in [3] and in [4] was above 100 µM throughout. Moreover, the TGI in [5], in assay [6] and in assay [7] was above 100 µM in each case.
On to `CC(=O)O[C@]1(C)OC(=O)[C@@H](CC(C)C)N1[N+](=O)[O-]`, for which the TGI in [8], in assay [9], in [1], in assay [2], in assay [3] and in [4] was above 100 µM throughout. The TGI in assay [6] and in assay [7] was above 100 µM in each case.
Take `CC(=O)[O-].[Mn+3].[O-]c1ccccc1C=NCCNCCN=Cc1ccccc1[O-]`: the GI50 in assay [9], in assay [1], in [2], in assay [3], in assay [4] and in [5] was above 100 µM each time. Further, the GI50 in assay [6] and in assay [7] was above 100 µM throughout. In addition, the TGI in assay [9], in assay [1], in [2], in [3], in assay [4] and in [5] was above 100 µM each time. Moreover, the TGI in [6] and in assay [7] was above 100 µM in each case.
In the case of `O=c1ncccn1C1OC(CO)C(O)C1O` (centres undefined), the TGI in assay [8], in assay [1], in assay [2], in assay [3], in assay [4] and in assay [5] was above 100 µM in each case. This compound also returned a TGI in [7] above 100 µM.
Turning to `CN1CCc2c1nc(-c1ccc(Cl)cc1)c1c2N(C)CC1`, the TGI in assay [8] is 65 µM; in [9] it was 47.4 µM; in assay [1], 45.7 µM; in assay [2] it was 20.4 µM; in assay [3], 40.4 µM; in assay [4] it was above 100 µM. In addition, the TGI in assay [5] was above 100 µM; in assay [6] it was 32.9 µM; in assay [7] it was 32.5 µM.
Regarding `CC(=O)OCC(=O)[C@@]12OC(C)(C)O[C@@H]1C[C@H]1[C@@H]3CC(C=O)=C4C=C(OCCCl)CC[C@]4(C)[C@@]3(F)[C@@H](O)C[C@@]12C`, the TGI in assay [8] is 29.5 µM; in assay [9], 97.1 µM; in [1], above 100 µM; in [2], 61.7 µM; in assay [3] it was 88.4 µM; in [4], above 100 µM. Besides, the TGI in assay [5] is above 100 µM; in assay [6] it was 80.9 µM; in [7], above 100 µM.
In the case of `NNC(=O)C(=O)N/N=C1\CCC(=O)CC1C(=O)CCC(=O)Nc1ccc(Cl)cc1` (centres undefined), the TGI in [8], in assay [9], in assay [1], in [2], in assay [3] and in [4] was above 100 µM in each case. In addition, the TGI in assay [5], in assay [6] and in [7] was above 100 µM in each case.
`N.N.N.N.N.O=[N+]([O-])[O-].[Co+3].[O-][Cl+3]([O-])([O-])[O-]`: the GI50 in assay [8], in assay [9], in assay [1], in assay [2], in [3] and in assay [4] was above 100 µM each time. Moreover, the GI50 in [5], in assay [6] and in assay [7] was above 100 µM in each case. The TGI in assay [8], in [9], in assay [1], in [2], in [3] and in [4] was above 100 µM each time. Further, the TGI in assay [5], in assay [6] and in [7] was above 100 µM each time.
`C[C@]12CC[C@H](O)CC1=CC[C@@H]1C2CC[C@]2(C)Nc3c(cnn3-c3ccccc3)CC12` (some centres undefined): the TGI in [8] was 22.3 µM; in [9], 7 µM; in [1], 5.13 µM; in assay [2] it was 30.9 µM; in assay [3] it was 10.8 µM; in assay [4], above 100 µM. The TGI in assay [6] stood at 2.99 µM; in [7] it was 25.3 µM.
`N/N=C1\C(=O)N(c2ccc(Cl)cc2Cl)C(=O)C(=O)C1c1nc2ccccc2o1` (centres undefined): the TGI in assay [8], in assay [9], in assay [1], in [2], in assay [3] and in assay [4] was above 100 µM throughout. For the same compound, the TGI in assay [5], in assay [6] and in assay [7] was above 100 µM each time.
As to `CC(C)OP(=O)(OC(C)C)/C(N)=N/Nc1ccc([N+](=O)[O-])cc1`, the TGI in assay [8], in assay [9], in [1], in assay [2], in assay [3] and in assay [4] was above 100 µM throughout. The TGI in [5], in assay [6] and in assay [7] was above 100 µM each time.
For the compound `C#Cc1c(C)c(/C=C/C(C)=C/C(=O)OC)n(C)c1C`, the TGI was above 100 µM in assay [8]; 79.4 µM in assay [9]; above 100 µM in assay [1]; above 100 µM in assay [2]; above 100 µM in assay [4]; above 100 µM in assay [5]. For the same compound, the TGI in assay [6] and in assay [7] was above 100 µM each time.
For `Cc1ccc(S(=O)(=O)c2ccccc2[N+](=O)[O-])cc1`, the TGI in assay [8], in assay [9], in assay [1], in [2], in assay [3] and in assay [4] was above 100 µM in each case. Further, the TGI in [6] and in [7] was above 100 µM in each case.
As to `O=C(O)CCNCCCCNCCC(=O)O`, the TGI in assay [8], in assay [9], in assay [1], in [2], in [3] and in assay [4] was above 100 µM each time. The TGI in assay [5] and in assay [6] was above 100 µM throughout.
For `C=CCO/N=C(\OC(=O)c1ccc([N+](=O)[O-])cc1)c1ccccc1`, the TGI in assay [8], in assay [1], in [2], in [3], in [4] and in [5] was above 100 µM in each case. Besides, the TGI in [6] and in assay [7] was above 100 µM throughout.
Take `COc1ccc(C(=O)C(CC2C(=O)NC(=O)NC2=O)c2ccc(OC)cc2)cc1` (centres undefined): the TGI in [8], in assay [9], in [1], in assay [2], in assay [3] and in assay [4] was above 100 µM each time. Besides, the TGI in assay [5], in [6] and in assay [7] was above 100 µM in each case.
`c1ccc2c(c1)oc1ccc3nsnc3c12`: the TGI in assay [8] was above 100 µM; in assay [9], above 100 µM; in assay [1], above 100 µM; in assay [2], above 100 µM; in [3], above 10 µM; in assay [5], above 100 µM. The TGI in [6] and in [7] was above 100 µM throughout.
Regarding `C=CCC1=C(C)C[C@@H]2CCC(=O)C=C12`, the TGI in assay [9], in assay [1], in [2], in assay [3], in assay [4] and in assay [5] was above 100 µM throughout. The TGI in [6] and in assay [7] was above 100 µM throughout.
For `COC(=O)c1c2c(cc3c1CC1(Cc4cc5c(c(C(C)=O)c4C1)CCC5)C3)CCC2` (centres undefined), the TGI in assay [8] is above 100 µM; in [9], 86.4 µM; in assay [1] it was above 100 µM; in assay [2] it was above 100 µM; in [3], above 100 µM; in [4], above 100 µM. Besides, the TGI in assay [5], in assay [6] and in [7] was above 100 µM throughout.
On to `Cc1cc(N(CCC#N)CCC#N)ccc1N=Nc1ccc(Br)cc1`, for which the TGI in [8] is above 79.3 µM; in assay [9], above 100 µM; in [1], above 100 µM; in assay [2] it was above 66 µM; in assay [3] it was above 100 µM; in assay [4] it was above 96.1 µM. In addition, the TGI is above 100 µM in [5], above 51.9 µM in [6] and above 57.6 µM in assay [7].
Turning to `Cc1cccc(C)c1NC(=O)CCc1nc(=S)[nH][nH]1`, the TGI in assay [8], in assay [9], in assay [2], in [3], in [4] and in assay [5] was above 100 µM each time. In addition, the TGI in [6] and in assay [7] was above 100 µM throughout.
On to `CC1=NN(C(=O)c2ccc(Cl)cc2)C(=O)/C1=C/c1ccccc1O`, for which the TGI in [8], in assay [9], in [1], in assay [2], in assay [3] and in assay [4] was above 100 µM in each case. In addition, the TGI in assay [5], in assay [6] and in assay [7] was above 100 µM throughout.
Regarding `CCOC(=O)N1CCc2cc(OC)c(OC)cc2/C1=C\c1ccc(OC)c(OC)c1`, the TGI in assay [8] was above 100 µM; in [9], 53.1 µM; in assay [1] it was 85.6 µM; in [2], above 10 µM; in assay [4] it was 92.7 µM; in assay [5], above 100 µM. For the same compound, the TGI in assay [6] was 59.2 µM; in assay [7], 69.5 µM.
On to `COC(=O)CC(NC(=O)OCc1ccccc1)C(C(=O)OCc1ccccc1)C(C)(OC)OC` (centres undefined), for which the TGI in assay [8] was above 100 µM; in assay [9], 90.9 µM; in assay [2], above 100 µM; in [3], 80.2 µM; in assay [4], above 100 µM; in [5], above 100 µM. Also, the TGI in assay [6] is above 100 µM; in assay [7], 68.7 µM.
Consider `O=C1C=CC(=O)c2c(O)c(NCCOCCO)c(Cl)c(O)c21`, for which the TGI in assay [9] was above 100 µM; in assay [1], 15.1 µM; in [2] it was 23.5 µM; in [3], 13.6 µM; in [4], 20.4 µM; in [6], 15 µM. This compound also showed a TGI in assay [7] of 29.7 µM.
For `CC1CCSC(N(C(=O)N(C)c2ccccc2)c2ccccc2)=N1` (centres undefined), the TGI in [8], in assay [9], in assay [1], in [2], in assay [3] and in assay [4] was above 100 µM each time. Moreover, the TGI in assay [5], in assay [6] and in assay [7] was above 100 µM in each case.
